In ChEMBL document CHEMBL1201862, “PubChem BioAssay data set” (2004):
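Step 1: Grow cells in 96-well plates. Step 2: Expose to compound for 48 hours at 5 concentrations. Step 3: Interpolate endpoints linearly; if unreached, use highest concentration. Here, GI50 denotes the concentration required for 50% inhibition of growth.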 Activity calls are given as the source filed them. Rule as the data show it: active = GI50 up to about 1.1 µM and inactive = higher.

Experiments:
Assay in all cases: inhibition of tumour cell growth, NCI panel, 48 h
786-0 = test system: 786-0
A498 = test system: A498
A549 = test system: A549
ACHN = test system: ACHN
CAKI-1 = test system: CAKI-1
CCRF-CEM = test system: CCRF-CEM
COLO 205 = test system: COLO 205
DU-145 = test system: DU-145
EKVX = test system: EKVX
HCC 2998 = test system: HCC 2998
HCT-116 = test system: HCT-116
HCT-15 = test system: HCT-15
HL-60 = test system: HL-60
HOP-62 = test system: HOP-62
HOP-92 = test system: HOP-92
HT-29 = test system: HT-29
IGROV-1 = test system: IGROV-1
K562 = test system: K562
KM12 = test system: KM12
LOX IMVI = test system: LOX IMVI
M14 = test system: M14
MCF7 = test system: MCF7
MDA-MB-231 = test system: MDA-MB-231
MDA-MB-435 = test system: MDA-MB-435
MDA-N = test system: MDA-N
MOLT-4 = test system: MOLT-4
NCI-H23 = test system: NCI-H23
NCI-H460 = test system: NCI-H460
NCI/ADR-RES = test system: NCI/ADR-RES
OVCAR-3 = test system: OVCAR-3
OVCAR-4 = test system: OVCAR-4
OVCAR-5 = test system: OVCAR-5
OVCAR-8 = test system: OVCAR-8
PC-3 = test system: PC-3
RPMI-8226 = test system: RPMI-8226
SF-295 = test system: SF-295
SK-MEL-28 = test system: SK-MEL-28
SK-MEL-2 = test system: SK-MEL-2
SK-MEL-5 = test system: SK-MEL-5
SK-OV-3 = test system: SK-OV-3
SN12C = test system: SN12C
SNB-19 = test system: SNB-19
SNB-75 = test system: SNB-75
SR = test system: SR
SW-620 = test system: SW-620
T47D = test system: T47D
TK-10 = test system: TK-10
U-251 = test system: U-251
UACC-257 = test system: UACC-257
UACC-62 = test system: UACC-62
UO-31 = test system: UO-31
Malme-3M = test system: Malme-3M
NCI-H226 = test system: NCI-H226
SF-268 = test system: SF-268

Compound: CO[C@@H](C(=O)OC1C=CC2(CC1)C(=O)N(C)c1ccccc12)c1ccccc1 (some centres not stated)
- GI50 (786-0): > 100 µM (inactive)
- GI50 (A498): > 100 µM (inactive)
- GI50 (A549): > 100 µM (inactive)
- GI50 (ACHN): > 100 µM (inactive)
- GI50 (CAKI-1): > 100 µM (inactive)
- GI50 (CCRF-CEM): > 100 µM (inactive)
- GI50 (COLO 205): 60 µM (inactive)
- GI50 (DU-145): > 100 µM (inactive)
- GI50 (EKVX): 57 µM (inactive)
- GI50 (HCC 2998): > 100 µM (inactive)
- GI50 (HCT-116): 52.5 µM (inactive)
- GI50 (HCT-15): > 100 µM
- GI50 (HL-60): 20.9 µM (inactive)
- GI50 (HOP-62): > 100 µM (inactive)
- GI50 (HOP-92): > 100 µM (inactive)
- GI50 (HT-29): 65.8 µM (inactive)
- GI50 (IGROV-1): > 100 µM (inactive)
- GI50 (K562): 20 µM (inactive)
- GI50 (KM12): > 100 µM (inactive)
- GI50 (LOX IMVI): > 100 µM (inactive)
- GI50 (M14): 72.6 µM (inactive)
- GI50 (MCF7): 50.8 µM (inactive)
- GI50 (MDA-MB-231): > 100 µM (inactive)
- GI50 (MDA-MB-435): 94.8 µM (inactive)
- GI50 (MDA-N): > 100 µM (inactive)
- GI50 (MOLT-4): 40.4 µM (inactive)
- GI50 (NCI-H23): 76.6 µM (inactive)
- GI50 (NCI-H460): > 100 µM (inactive)
- GI50 (NCI/ADR-RES): 45.1 µM (inactive)
- GI50 (OVCAR-3): > 100 µM (inactive)
- GI50 (OVCAR-4): 70.3 µM (inactive)
- GI50 (OVCAR-5): > 100 µM (inactive)
- GI50 (OVCAR-8): > 100 µM (inactive)
- GI50 (PC-3): > 100 µM (inactive)
- GI50 (RPMI-8226): 50.6 µM (inactive)
- GI50 (SF-295): > 100 µM (inactive)
- GI50 (SK-MEL-28): > 100 µM (inactive)
- GI50 (SK-MEL-2): > 100 µM (inactive)
- GI50 (SK-MEL-5): 34.3 µM (inactive)
- GI50 (SK-OV-3): > 100 µM (inactive)
- GI50 (SN12C): > 100 µM (inactive)
- GI50 (SNB-19): > 100 µM (inactive)
- GI50 (SNB-75): > 100 µM (inactive)
- GI50 (SR): 42.1 µM (inactive)
- GI50 (SW-620): > 100 µM (inactive)
- GI50 (T47D): 44.2 µM (inactive)
- GI50 (TK-10): > 100 µM (inactive)
- GI50 (U-251): > 100 µM (inactive)
- GI50 (UACC-257): 65.3 µM (inactive)
- GI50 (UACC-62): > 100 µM (inactive)
- GI50 (UO-31): > 100 µM (inactive)

Compound: O=C(/C=C/c1cccs1)c1ccsc1
- GI50 (786-0): 28.8 µM (inactive)
- GI50 (A498): 38.7 µM (inactive)
- GI50 (A549): 38 µM (inactive)
- GI50 (ACHN): 20.2 µM (inactive)
- GI50 (CAKI-1): 56.5 µM (inactive)
- GI50 (CCRF-CEM): 16.5 µM (inactive)
- GI50 (COLO 205): 18.1 µM (inactive)
- GI50 (DU-145): 50.2 µM (inactive)
- GI50 (EKVX): 31.1 µM (inactive)
- GI50 (HCC 2998): 17.4 µM (inactive)
- GI50 (HCT-15): 16.8 µM
- GI50 (HL-60): 15.5 µM (inactive)
- GI50 (HOP-62): 73.5 µM (inactive)
- GI50 (HT-29): 19.3 µM (inactive)
- GI50 (IGROV-1): 25.1 µM (inactive)
- GI50 (K562): 17.5 µM (inactive)
- GI50 (KM12): > 10 µM (inactive)
- GI50 (LOX IMVI): 17.2 µM (inactive)
- GI50 (M14): 39.2 µM (inactive)
- GI50 (MCF7): 10.4 µM (inactive)
- GI50 (MDA-MB-231): > 10 µM (inactive)
- GI50 (MDA-MB-435): 21.8 µM (inactive)
- GI50 (MDA-N): 18.9 µM (inactive)
- GI50 (MOLT-4): 16.9 µM (inactive)
- GI50 (Malme-3M): 22.2 µM (inactive)
- GI50 (NCI-H226): 21.1 µM (inactive)
- GI50 (NCI-H23): 18.1 µM (inactive)
- GI50 (NCI-H460): 24.5 µM (inactive)
- GI50 (NCI/ADR-RES): 35.2 µM (inactive)
- GI50 (OVCAR-4): 51.1 µM (inactive)
- GI50 (OVCAR-5): 26.9 µM (inactive)
- GI50 (OVCAR-8): 27.6 µM (inactive)
- GI50 (PC-3): 22.4 µM (inactive)
- GI50 (RPMI-8226): 15.9 µM (inactive)
- GI50 (SF-268): 45.1 µM (inactive)
- GI50 (SF-295): 32.4 µM (inactive)
- GI50 (SK-MEL-28): 32.7 µM (inactive)
- GI50 (SK-MEL-2): 36.2 µM (inactive)
- GI50 (SK-MEL-5): 18.9 µM (inactive)
- GI50 (SK-OV-3): 33.4 µM (inactive)
- GI50 (SN12C): 19.8 µM (inactive)
- GI50 (SNB-19): 18.9 µM (inactive)
- GI50 (SNB-75): 27.8 µM (inactive)
- GI50 (SR): 16.6 µM (inactive)
- GI50 (SW-620): 29 µM (inactive)
- GI50 (T47D): 26.3 µM (inactive)
- GI50 (TK-10): 22.7 µM (inactive)
- GI50 (U-251): > 10 µM (inactive)
- GI50 (UACC-257): 23 µM (inactive)
- GI50 (UACC-62): 16.5 µM (inactive)
- GI50 (UO-31): 17.6 µM (inactive)
